Source: patent US20230096766A1, “AMINO ACID HAVING FUNCTIONAL GROUP CAPABLE OF INTERMOLECULAR HYDROGEN BONDING, PEPTIDE COMPOUND CONTAINING SAME AND METHOD FOR PRODUCTION THEREOF” (Chugai Seiyaku Kabushiki Kaisha, priority 2018, published 2023)
*1 amine or outer side, *2 acyl side, *3 side chain or, on linkers, in order; H or OH if unused. Where a SMILES comes first, the peptide text is derived from it. Bridges are numbered along the chain shown (N, C = ends). [ ]: non-standard residue; d: D form. The star is where a group is joined. ξ: configuration not given here. NMeHph(3-OMe-4-CONHMe) = CNC(=O)c1ccc(CC[C@H](NC)C(=O)O)cc1OC; dhPhe(4-CONHMe,3-OMe) = CNC(=O)c1ccc(CC[C@@H](N)C(=O)O)cc1OC; X11 = CNC(=O)c1ccc(CCN(CC(=O)[*:2])[*:1])cc1OC; X12 = O=C([C@H](CCCC(O)C(F)(F)F)N[*:1])[*:2]; NMehPhe = CN[C@@H](CCc1ccccc1)C(=O)O; NMeF = CN[C@@H](Cc1ccccc1)C(=O)O; NMeGABA = CN(CCCC(=O)[*:2])[*:1]; NMeI = CC[C@H](C)[C@H](NC)C(=O)O; CH2CONHtBu = CC(C)(C)NC(=O)C*; NMeL = CN[C@@H](CC(C)C)C(=O)O; Thr(3ξ) = CC(O)[C@H](N)C(=O)O; Propyl(2R-OH) = C[C@@H](O)C*; NMeV = CN[C@H](C(=O)O)C(C)C; NMeAbu = CC[C@H](NC)C(=O)O; NMeA = CN[C@@H](C)C(=O)O; Piperidide = C1CCN(*)CC1; X8 = C1COC[C@@H](C*)N1; NBuGly = CCCCNCC(=O)O; NPrGly = CCCNCC(=O)O; Sar = CNCC(=O)O; tBu = CC(C)(C)*

Assay: in vitro
Details: human

SMILES | Papp (Caco-2, Caco-2 (cm/sec)) | also measured
CCCCN1CC(=O)N(C)[C@@H](Cc2ccccc2)C(=O)N[C@@H](COCC(=O)NC(C)(C)C)C(=O)N(C)[C@@H](CC(C)C)C(=O)N[C@@H]([C@@H](C)O)C(=O)N(CCC)CC(=O)N(C)[C@@H](Cc2ccccc2)C(=O)N(C)[C@@H](CC(C)C)C(=O)N[C@@H](CC(C)C)C(=O)N(C)[C@@H](C)C(=O)N[C@H](C(=O)N2CCCCC2)CC1=O [AP17] ([NBuGly][NMeF]S(CH2CONHtBu)[NMeL]T[NPrGly][NMeF][NMeL]L[NMeA]D-Piperidide; lactam N-11) | 0.72 ×10⁻⁶ cm/s | 
CC(C)C[C@H]1C(=O)N(C)[C@@H](Cc2ccccc2)C(=O)N(C)[C@@H](Cc2ccccc2)C(=O)N[C@@H]([C@@H](C)O)C(=O)N(C)[C@@H](C)C(=O)N(C)[C@@H](Cc2ccccc2)C(=O)N[C@H](C(=O)N2CCCCC2)CC(=O)N(C)[C@@H](C)C(=O)N(C)[C@@H](Cc2ccccc2)C(=O)N(C)[C@@H](CC(C)C)C(=O)N[C@@H](C(C)C)C(=O)N1C [pd233] ([NMeA][NMeF][NMeL]V[NMeL][NMeF][NMeF]T[NMeA][NMeF]D-Piperidide; lactam N-11) |  | Papp (Caco-2, Caco-2 (cm/sec) Papp): 0.17 ×10⁻⁶ cm/s
CCCCN1CC(=O)N(C)[C@@H](CC(C)C)C(=O)N[C@H](C(=O)N2CCCCC2)CC(=O)N(C)[C@@H](C)C(=O)N[C@@H](COC[C@@H]2COCCN2)C(=O)N(C)[C@@H](CC(C)C)C(=O)N(C)[C@@H](CC)C(=O)N[C@@H](C(C)C)C(=O)N(C)[C@@H](Cc2ccccc2)C(=O)N(C)[C@@H](CC(C)C)C(=O)N[C@@H]([C@@H](C)O)C1=O [AP243] ([NMeA]S(X8)[NMeL][NMeAbu]V[NMeF][NMeL]T[NBuGly][NMeL]D-Piperidide; lactam N-11) | 0.46 ×10⁻⁶ cm/s | 
CC[C@H](C)[C@@H]1NC(=O)[C@H](CC(C)C)N(C)C(=O)[C@@H](C)NC(=O)C[C@@H](C(=O)N2CCCCC2)NC(=O)[C@H](CC(C)C)N(C)C(=O)[C@H](Cc2ccccc2)N(C)C(=O)[C@H](COC(C)(C)C)NC(=O)[C@H](CC(C)C)N(C)C(=O)[C@H](CC)N(C)C(=O)[C@H]([C@@H](C)O)NC(=O)CN(CCc2ccc(C(=O)NC)c(OC)c2)C1=O [AP222] ([dA][NMeL]I[X11]T[NMeAbu][NMeL]S(tBu)[NMeF][NMeL]D-Piperidide; lactam N-11) | 0.31 ×10⁻⁶ cm/s | 
CC[C@H](C)[C@H]1C(=O)N[C@@H]([C@@H](C)O)C(=O)N(C)CC(=O)N(C)[C@@H](CC(C)C)C(=O)N[C@H](C(=O)N2CCCCC2)CC(=O)N(C)[C@@H](C(C)C)C(=O)N[C@@H](CC(C)C)C(=O)N(C)[C@@H](CC(C)C)C(=O)N(C)[C@@H](Cc2ccccc2)C(=O)N[C@@H](COC[C@@H](C)O)C(=O)N(C)[C@@H](Cc2ccccc2)C(=O)N1C [AP76] ([NMeV]L[NMeL][NMeF]S(Propyl(2R-OH))[NMeF][NMeI]T[Sar][NMeL]D-Piperidide; lactam N-11) | 0.84 ×10⁻⁶ cm/s | 
CCCCN1CC(=O)N(C)[C@@H](Cc2ccccc2)C(=O)N(C)[C@@H](CC(C)C)C(=O)N[C@@H](CCCC(O)C(F)(F)F)C(=O)N(C)[C@@H](CC(C)C)C(=O)N[C@H](C(=O)N2CCCCC2)CC(=O)N(C)CC(=O)N(C)[C@@H](Cc2ccccc2)C(=O)N[C@@H]([C@@H](C)CC)C(=O)N(C)[C@@H](CC(C)C)C(=O)N[C@@H]([C@@H](C)O)C1=O (stereo partly drawn) [Compound D07] ([Sar][NMeF]I[NMeL]T[NBuGly][NMeF][NMeL][X12][NMeL]D-Piperidide; lactam N-11) |  | Papp (Caco-2, Caco-2 (membrane permeability)): 0.37 ×10⁻⁶ cm/s
CCCCN1CC(=O)N(C)[C@@H](Cc2ccccc2)C(=O)N(C)[C@@H](CC(C)C)C(=O)N[C@@H](COC(C)(C)C)C(=O)N(C)[C@@H](CC(C)C)C(=O)N[C@H](C(=O)N2CCCCC2)CC(=O)N(C)CC(=O)N(C)[C@@H](CCc2ccc(C(=O)NC)c(OC)c2)C(=O)N[C@@H](C(C)C)C(=O)N(C)[C@@H](CC(C)C)C(=O)N[C@@H]([C@@H](C)O)C1=O [AP231] ([Sar][NMeHph(3-OMe-4-CONHMe)]V[NMeL]T[NBuGly][NMeF][NMeL]S(tBu)[NMeL]D-Piperidide; lactam N-11) | 1 ×10⁻⁶ cm/s | 
CCCCN1CC(=O)N(C)[C@@H](CC(C)C)C(=O)N[C@@H](COCC(=O)NC(C)(C)C)C(=O)N(C)[C@@H](CCc2ccccc2)C(=O)N(C)[C@@H](C)C(=O)N[C@H](C(=O)N2CCCCC2)CC(=O)N[C@H](CC(C)C)C(=O)N(C)[C@@H](CC(C)C)C(=O)N[C@@H](Cc2ccccc2)C(=O)N(C)[C@@H](CC(C)C)C(=O)N[C@@H](C(C)O)C1=O (stereo partly drawn) [AP12] ([dL][NMeL]F[NMeL][Thr(3ξ)][NBuGly][NMeL]S(CH2CONHtBu)[NMehPhe][NMeA]D-Piperidide; lactam N-11) | 0.17 ×10⁻⁶ cm/s | 
CNC(=O)c1ccc(CC[C@H]2NC(=O)[C@H](CC(C)C)N(C)C(=O)CCCN(C)C(=O)C[C@@H](C(=O)N3CCCCC3)NC(=O)[C@H](CC(C)C)N(C)C(=O)[C@H](CC(C)C)N(C)C(=O)[C@H]([C@@H](C)O)NC(=O)[C@H](CC(C)C)N(C)C(=O)[C@H](COC(C)(C)C)NC(=O)[C@H](Cc3ccccc3)N(C)C(=O)[C@H](CC(C)C)N(C)C2=O)cc1OC [AP211] ([NMeGABA][NMeL][dhPhe(4-CONHMe,3-OMe)][NMeL][NMeF]S(tBu)[NMeL]T[NMeL][NMeL]D-Piperidide; lactam N-11) | 0.36 ×10⁻⁶ cm/s | 
